In brackets after ≈: the same amount, converted by molar mass.
Tested on: A2780
Experiment: Cytotoxicity against human A2780 cells
Type: functional, cell-based

Q: For `COc1cc(O)cc(CCCCCCC/C=C\CCCCCCCc2cc(O)cc(O)c2)c1` [ONCOSTEMONOL D], which IC50 is on record?
A: Its IC50 is 10 µg/mL (≈ 22 µM).

Q: How did the IC50 turn out when `CC(=O)Oc1cc(O)cc(CCCCCCC/C=C\CCCCCCCc2cc(O)cc(O)c2)c1` [ONCOSTEMONOL B] was run?
A: The IC50 was 10.2 µg/mL (≈ 21.1 µM).

Q: Which IC50 does the source give for `CC(=O)Oc1cc(O)cc(CCCCCCC/C=C\CCCCCCCc2cc(O)cc(OC(C)=O)c2)c1` [ONCOSTEMONOL A] here?
A: The IC50 was 9.4 µg/mL (≈ 17.9 µM).

Q: For `Oc1cc(O)cc(CCCCCCC/C=C\CCCCCCCc2cc(O)cc(O)c2)c1`, which IC50 is on record?
A: The IC50 was 10.2 µg/mL (≈ 23.1 µM).

Q: How did the IC50 turn out when `COc1cc(O)cc(CCCCCCC/C=C\CCCCCCCc2cc(O)cc(OC)c2)c1` [ONCOSTEMONOL C] was run?
A: Its IC50 is 9.8 µg/mL (≈ 20.9 µM).

Q: For `Oc1cc(O)cc(CCCCC/C=C\CCCCCCCc2cc(O)cc(O)c2)c1`, which IC50 is on record?
A: The IC50 was 9.8 µg/mL (≈ 23.8 µM).

Q: With `CC(=O)Oc1cc(O)cc(CCCCCCCCCCCCCCCCc2cc(O)cc(OC(C)=O)c2)c1` [ONCOSTEMONOL F] as the compound, how does the IC50 read?
A: Its IC50 is 9.5 µg/mL (≈ 18 µM).

Q: `Oc1cc(O)cc(CCCCCCC/C=C\CCCCCCCCCc2cc(O)cc(O)c2)c1` [ONCOSTEMONOL H] was tested. Which IC50 did it give?
A: Its IC50 is 9.4 µg/mL (≈ 20.1 µM).

Q: How did the IC50 turn out when `Oc1cc(O)cc(CCCCCCCCC/C=C\CCCCCCCCCc2cc(O)cc(O)c2)c1` [ONCOSTEMONOL G] was run?
A: The IC50 was 10.2 µg/mL (≈ 20.5 µM).

Q: `COc1cc(O)cc(CCCCCCC/C=C\CCCCCCCc2cc(OC)cc(OC)c2)c1` [ONCOSTEMONOL E] was tested. Which IC50 did it give?
A: Its IC50 is 9.8 µg/mL (≈ 20.3 µM).

Source: ChEMBL document CHEMBL1150131, “New cytotoxic bis 5-alkylresorcinol derivatives from the leaves of Oncostemon bojerianum from the Madagascar rainforest” (J Nat Prod, 2002)
